# Experimental data reported in patent publication US9642909B2, “Pharmaceutical compositions comprising attenuated Plasmodium sporozoites and glycolipid adjuvants” (Sanaria Inc., priority 2011, dated 2017).
# Several values for one entry are separate records, joined by “and”; a condition that tells them apart may be missing. Equal values may be shown once. Read-outs that look alike come from different tables or passages of the source.
# Key:
# [1] = test system: iNKT cells; settings: mouse; cited from earlier work
# [2] = test system: pathogenic P. yoelii sporozoites; settings: versus α-GalCer, cited from earlier work
# [3] = test system: iNKT cells; settings: human; cited from earlier work
# [4] = test system: pathogenic P. yoelii sporozoites; experiment: Protection of BALB/c mice against pathogenic P. yoelii sporozoite challenge after a single IV dose of irr PySPZ with or without 7DW8-5 IP; assay type: in vivo
# Description: To determine if the adjuvant 7DW8-5 could decrease the number of doses of irr PySPZ required to confer protection, a suboptimal dosing regimen was performed. irr PySPZ (17NXL) were dissected from the salivary glands of A. stephensi mosquitoes and injected intravenously (IV) into BALB/c mice as a single dose of either of 5×10^4 or 1×10^4 sporozoites. Two μg of 7DW8-5 was concurrently administered intraperitoneally (IP) in some mice. Fourteen days later, mice were challenged with 100 non-irradiated pathogenic P. yoelii sporozoites. Protection was assessed by Giemsa-stained blood smears and was defined as the complete absence of parasitemia 7 and 14 days post infection.
# A second experiment was performed to confirm the results shown in Example 1. […] Again, adjuvant in the absence of antigen had no effect.
# Using the single dose methodology of Example 1 with radiation attenuated Py sporozoites that have been purified using the purification procedure disclosed in Sim et al. (U.S. Pat. No. 8,043,625, incorporated in its entirety herein by reference) a third experiment was performed. Using 1×10^4 purified sporozoites administered IV in a single dose, 3 out of 10 mice were protected, whereas 7 of 10 mice were protected when the adjuvant was concurrently administered IP.
# To determine the optimal single dose of attenuated sporozoites (in conjunction with 7DW8-5 concurrently administered distally IP) that confers protection by the IV route, mice were injected IV with 0, 2500, 5000, 10,000 and 20,000 sporozoites. Two μg of 7DW8-5 were injected IP.
# [5] = test system: pathogenic P. yoelii sporozoites; experiment: Protection of BALB/c mice after intradermal immunization with irr PySPZ mixed with 7DW8-5 at base of tail; assay type: in vivo
# Description: To determine whether protective immunogenicity of attenuated sporozoites is maintained or enhanced in the presence of 7DW8-5, mice were immunized by intradermal (ID) injection alone, with 2 doses at 2-week intervals of 15,000, 10,000, 5,000 and 2,500 sporozoites and unlike Examples 1-5, 1 μg 7DW8-5 was mixed as a composition with sporozoites and the composition of adjuvant and sporozoites was delivered ID at the base of the tail. With 2 doses of 15,000 sporozoites in the presence of adjuvant 100% of the mice were protected, and at lower doses of sporozoites 60-80% of the mice were protected. In the absence of adjuvant, only 40% of mice receiving 2 doses of 15,000 sporozoites were protected.
# Protection conferred by a single dose of a composition of 1 μg 7DW8-5 adjuvant and varying amounts of sporozoites delivered ID was measured. For this 15,000 and 30,000 sporozoites were administered to mice ID as described above. These doses were partially protective at 60% and 40% respectively.
# The next step in development was to assess purified irr PySPZ BALB/c/mice were immunized with irr PySPZ purified as described, in the presence or absence of 7DW8-5 adjuvant.
# [6] = pre-loaded autologous PBMCs or direct injection; cited from earlier work
# [7] = target: CD1d (Homo sapiens, UniProt P15813); settings: cited from earlier work
# Sequence of CD1d (P15813 20-335, species assumed): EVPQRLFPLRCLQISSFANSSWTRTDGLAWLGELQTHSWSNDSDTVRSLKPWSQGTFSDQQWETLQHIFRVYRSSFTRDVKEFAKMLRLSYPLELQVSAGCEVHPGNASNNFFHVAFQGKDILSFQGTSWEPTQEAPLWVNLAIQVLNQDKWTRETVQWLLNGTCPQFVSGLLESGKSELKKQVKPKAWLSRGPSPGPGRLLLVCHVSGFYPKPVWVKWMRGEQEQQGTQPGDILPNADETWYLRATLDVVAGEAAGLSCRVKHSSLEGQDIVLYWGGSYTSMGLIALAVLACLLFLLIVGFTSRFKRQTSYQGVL
# Sequence of CD1d (P61769 21-119 partner, species assumed): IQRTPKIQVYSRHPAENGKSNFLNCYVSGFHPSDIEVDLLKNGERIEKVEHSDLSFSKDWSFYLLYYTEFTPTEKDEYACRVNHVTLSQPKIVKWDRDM
# [8] = test system: IFN-γ-secreting CS-specific CD8+ cells; settings: irradiated sporozoites SC with α-GalCer by the same route vs without; cited from earlier work
# [9] = summary of Examples 1-3, one dose irr PySPZ IV, 7DW8-5 IP where given
Compound,ability to elicit cytokine production from iNKT cells [1],malaria-specific humoral response ([2]; co-administered IM with adenovirus vaccine),malaria-specific CD8+ T cell response ([2]; co-administered IM with suboptimal dose of adenovirus vaccine),adjuvant effect in enhancing protective efficacy ([2]; single immunizing dose of adenovirus recombinant vaccine),ability to elicit cytokine production from iNKT cells [3],"# protected/# challenged ([4]; Example 1, 2 μg 7DW8-5 IP alone, no sporozoites)","# protected/# challenged ([4]; Example 2, 2 μg 7DW8-5 IP alone, no sporozoites)","# protected/# challenged ([4]; Example 3, 2 μg 7DW8-5 IP alone, no sporozoites)","First Challenge # protected/# re-challenged ([4]; Example 4 table, first challenge, 2 μg 7DW8-5 IP alone)","# protected/# challenged ([4]; Example 5, 0 sporozoites, 2 μg 7DW8-5 IP)","percent protected [4, 9]","protected/challenged [4, 9]","# protected/# challenged ([5]; Example 6, 0 sporozoites, 1 μg 7DW8-5 per mouse ID)","protection ([5]; Example 8, adjuvant alone)",safety and tolerability [6],activation of iNKT cells [1],affinity for CD1d [7],activation of iNKT cells [3],increase in number of IFN-γ-secreting CS-specific CD8+ cells [8]
CCCCCCCCCCCCCC[C@@H](O)[C@@H](O)[C@H](COC1OC(CO)C(O)C(O)C1O)NC(=O)CCCCCCCCCCc1ccc(F)cc1 (stereo partly shown) [7DW8-5],superior ability,equally if not slightly stronger than α-GalCer,significantly more than α-GalCer,significantly stronger adjuvant effect than α-GalCer,superior ability,no protection and 0/5,no effect and 0/5,0/5,0/5,0/5,0%,0/15,0/5,No protection,–,–,–,–,–
"CCCCCCCCCCCCCCCCCCCCCCCCCC(=O)N[C@@H](CO[C@H]1O[C@H](CO)[C@H](O)[C@H](O)[C@H]1O)[C@H](O)[C@H](O)CCCCCCCCCCCCCC [α-GalCer, α-galactosylceramide]",–,–,–,–,–,–,–,–,–,–,–,–,–,–,safe and well tolerated,potent activator,high affinity,potent activator,seven fold
